The subject of one experiment is HCC461 cells. Description: Cell viability assay in HCC461 cells (WST-1). It is filed as cell-based. Conditions: 48 hrs incubation. On the procedure:
HCC461 cells plated in 96 well plates at 5×10^4/ml cell density are treated with 50× synthetic Smac mimetic compounds (final concentration range between 30 uM and 0.001 uM). After 48 hrs incubation at 37° C. and 5% CO2 viability of the cells are measured using Cell Proliferation Reagent WST-1 assay kit (Roche Cat #11 644 807 001).
WST-1 assay principle: The tetrazolium salts are cleaved to formazan by cellular enzymes. An expansion in the number of viable cells results in an increase in the overall activity of mitochondrial dehydrogenases in the samples. This augmentation in the enzyme activity leads to an increase in the amount of formazan dye formed, which directly correlates to the number of metabolically active cells in the culture. Quantification of the formazan dye produced by metabolically active cells by using a microplate (ELISA) reader at 420-480 nm.
(In general: Tetrazolium assays rely on reduction of a dye to a coloured formazan, in cell work by metabolically active cells.)

Experiment [1] deals with truncated XIAP containing only BIR1, BIR2, and BIR3 domains (Homo sapiens, UniProt P98170). Nature of the experiment: Fluorescent polarization (FP) assay. As to conditions: Table 2 experiment. It is filed as binding. On the procedure:
Increasing concentrations of Smac compounds are incubated with 2 nM of labeled peptide (fluorescein labeled 10mer peptide with AVPI 4 amino acids at its N terminus-Alexa Fluor 488) and truncated XIAP containing only BIR1, BIR2, and BIR3 domains at room temperature for 1 hour. Fluorescence reading, indicative of the bound portion of the labeled peptide, is measured in milipolarization units (mP). The more compound added, less fluorescein labeled peptide bind to the protein due to the competitive binding and less fluorescence signal is released.
Based on this principle, we obtain the Ki value that evaluates compound's binding affinity.

The mark [2] stands for this setting: HCC461, 48 h, Table 1 experiment.
[3] abbreviates: HCC461, 48 h, Table 2 experiment.

Structures are written as SMILES.

The values below come from patent US8642554B2, “Smac mimetic dimers and trimers useful as anti-cancer agents” (Joyant Pharmaceuticals, Inc., priority 2007, dated 2014).

Chain of truncated XIAP containing only BIR1, BIR2, and BIR3 domains (P98170 26-330 limits assumed): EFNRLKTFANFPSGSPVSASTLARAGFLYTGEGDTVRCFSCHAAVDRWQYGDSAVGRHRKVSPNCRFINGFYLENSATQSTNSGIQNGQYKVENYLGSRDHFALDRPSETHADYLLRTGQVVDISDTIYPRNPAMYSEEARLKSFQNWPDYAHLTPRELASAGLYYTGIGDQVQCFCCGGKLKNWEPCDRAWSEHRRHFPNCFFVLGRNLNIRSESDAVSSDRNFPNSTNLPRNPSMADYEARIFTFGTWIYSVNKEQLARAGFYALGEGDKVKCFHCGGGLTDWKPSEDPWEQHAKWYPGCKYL

What is called IC50 is the concentration needed to halve the response being measured. A low value points to higher potency. On to `C#CC[C@H](NC(=O)[C@H](C)NC)C(=O)N1C[C@@H](NC(=O)c2cccc(C(=O)N[C@H]3C[C@@H](C(=O)N[C@@H]4CCCc5ccccc54)N(C(=O)[C@H](CC#C)NC(=O)[C@H](C)NC)C3)n2)C[C@H]1C(=O)N[C@@H]1CCCc2ccccc21` [compound 20], for which the IC50 with HCC461 cells (setting [2]) is 0.222 µM.

In the experiment with HCC461 cells (setting [2]), `CN[C@@H](C)C(=O)N[C@H](C(=O)N1C[C@@H](NC(=O)[C@H](O)[C@@H](O)C(=O)N[C@H]2C[C@@H](C(=O)N[C@@H]3CCCc4ccccc43)N(C(=O)[C@@H](NC(=O)[C@H](C)NC)C(C)(C)C)C2)C[C@H]1C(=O)N[C@@H]1CCCc2ccccc21)C(C)(C)C` [compound 21] registered an IC50 of 0.101 µM.

For `C#CC[C@H](NC(=O)[C@H](C)NC)C(=O)N1C[C@@H](NC(=O)[C@H](O)[C@@H](O)C(=O)N[C@H]2C[C@@H](C(=O)N[C@@H]3CCCc4ccccc43)N(C(=O)[C@H](CC#C)NC(=O)[C@H](C)NC)C2)C[C@H]1C(=O)N[C@@H]1CCCc2ccccc21` [compound 22], inhibition with HCC461 cells (setting [2]) was half-maximal at 0.263 µM (IC50).

In general, Ki refers to a measure of affinity in units of concentration, obtained from inhibition or displacement. Read a low Ki as higher affinity. Take `CN[C@@H](C)C(=O)NC(C(=O)C1C[C@@H](NC(=O)C2CCCC2C(=O)N[C@H]2CC(C(=O)N[C@@H]3CCCc4ccccc43)N(C(=O)[C@@H](NC(=O)[C@H](C)NC)C(C)(C)C)C2)CC1C(=O)N[C@@H]1CCCc2ccccc21)C(C)(C)C` (stereo partly shown) [compound 23]: affinity in experiment [1] was put at a Ki of 0.05 µM. The molecule further had a half-maximal inhibitory concentration (IC50) with HCC461 cells (Table 2 experiment) of 0.002 µM.

`CN[C@@H](C)C(=O)NC(C(=O)C1C[C@@H](NC(=O)C2CCCC2C(=O)N[C@H]2CC(C(=O)N[C@@H]3CCCc4ccccc43)N(C(=O)[C@@H](NC(=O)[C@H](C)NC)C(C)(C)C)C2)CC1C(=O)N[C@@H]1CCCc2ccccc21)C(C)(C)C` (stereo partly shown) [compound 24] came in with a Ki in experiment [1] of 0.35 µM. Half-maximal inhibition with HCC461 cells (Table 2 experiment) (IC50) was put at 0.021 µM.

The molecule `CN[C@@H](C)C(=O)NC(C(=O)C1C[C@@H](NC(=O)C2CCCC(C(=O)N[C@H]3CC(C(=O)N[C@@H]4CCCc5ccccc54)N(C(=O)[C@@H](NC(=O)[C@H](C)NC)C(C)(C)C)C3)C2)CC1C(=O)N[C@@H]1CCCc2ccccc21)C(C)(C)C` (stereo partly shown) [compound 25] came in with a Ki in experiment [1] of 0.25 µM. This molecule gave an IC50 with HCC461 cells (setting [3]) of 0.024 µM.

`CN[C@@H](C)C(=O)N[C@H](C(=O)N1C[C@@H](NC(=O)CC(C)(O)CC(=O)N[C@H]2C[C@@H](C(=O)N[C@@H]3CCCc4ccccc43)N(C(=O)[C@@H](NC(=O)[C@H](C)NC)C(C)(C)C)C2)C[C@H]1C(=O)N[C@@H]1CCCc2ccccc21)C(C)(C)C` [compound 26] came in with a Ki in experiment [1] of 0.32 µM. The IC50 in the experiment with HCC461 cells (setting [3]) was determined as 0.023 µM.

With `CN[C@@H](C)C(=O)N[C@H](C(=O)N1C[C@@H](NC(=O)COCC(=O)N[C@H]2C[C@@H](C(=O)N[C@@H]3CCCc4ccccc43)N(C(=O)[C@@H](NC(=O)[C@H](C)NC)C(C)(C)C)C2)C[C@H]1C(=O)N[C@@H]1CCCc2ccccc21)C(C)(C)C` [compound 27], the affinity in experiment [1], expressed as Ki, was 0.25 µM. In the experiment with HCC461 cells (setting [3]), this molecule yielded an IC50 of 0.082 µM.

Regarding `CN[C@@H](C)C(=O)N[C@H](C(=O)N1C[C@@H](NC(=O)c2c(F)c(F)c(F)c(C(=O)N[C@H]3C[C@@H](C(=O)N[C@@H]4CCCc5ccccc54)N(C(=O)[C@@H](NC(=O)[C@H](C)NC)C(C)(C)C)C3)c2F)C[C@H]1C(=O)N[C@@H]1CCCc2ccccc21)C(C)(C)C` [compound 28], the Ki in experiment [1] came to 0.23 µM. Besides, the 50% inhibitory concentration (IC50) in the experiment on HCC461 cells (setting [3]) is 0.002 µM.

In experiment [1], `CN[C@@H](C)C(=O)N[C@H](C(=O)N1C[C@@H](NC(=O)C23CC4CC(C2)CC(C(=O)N[C@H]2C[C@@H](C(=O)N[C@@H]5CCCc6ccccc65)N(C(=O)[C@@H](NC(=O)[C@H](C)NC)C(C)(C)C)C2)(C4)C3)C[C@H]1C(=O)N[C@@H]1CCCc2ccccc21)C(C)(C)C` [compound 29] returned a Ki of 0.24 µM. For the same molecule, the IC50 in the experiment on HCC461 cells (setting [3]) was found to be 0.005 µM.

In turn, `CN[C@@H](C)C(=O)N[C@H](C(=O)N1C[C@@H](NC(=O)[C@H]2CC[C@@](C)(C(=O)N[C@H]3C[C@@H](C(=O)N[C@@H]4CCCc5ccccc54)N(C(=O)[C@@H](NC(=O)[C@H](C)NC)C(C)(C)C)C3)C2(C)C)C[C@H]1C(=O)N[C@@H]1CCCc2ccccc21)C(C)(C)C` [compound 30] displayed a Ki in experiment [1] of 0.29 µM. For the same molecule, the IC50 with HCC461 cells (setting [3]) came out at 0.008 µM.
